Holding throughout (format): cell-based
Experiment [1] has as its system MDA-MB-231 (breast cancer). The experiment can be described thus: Antiproliferative activity (CCK-8 cell viability), MDA-MB-231. As to conditions: Homo sapiens, 72 h, read-out: Antiproliferative activity in cancerous cells, MDA-MB-231 (inhibition of cell growth); for inhibition at 3.3 µM: Compound concentration: 3.3 μM; for inhibition at 10 µM: Compound concentration: 10 μM. The method, boiled down: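 Growth inhibition of human MDA-MB-231 breast cancer cells was assessed with a Cell Counting Kit-8. Cells cultured in DMEM plus 10% FBS were seeded at 2,000-5,000 cells/well, treated after attachment, and kept 72 h at 37° C. CCK-8 solution (10 μL) was added for 4 h, and absorbance at 450 nm was compared with DMSO-treated controls.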

Another experiment concerns HepG2 (liver cancer). The experiment is described as follows: Antiproliferative activity (CCK-8 cell viability), HepG2. As to conditions: Homo sapiens, 72 h, read-out: Antiproliferative activity in cancerous cells, HepG2 (inhibition of cell growth); for inhibition at 3.3 µM: Compound concentration: 3.3 μM; for inhibition at 10 µM: Compound concentration: 10 μM. An outline of the steps:
(§1)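 Growth inhibition graded in bands from percent viability against DMSO vehicle, read as CCK-8 absorbance at 450 nm. Compound tested at 3.3, 10 or 30 μM for 72 h, 37 °C; media contained 10% FBS: DMEM for HepG2/SW480, MEM for HeLa, F-12K for A549.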

Another experiment has as its system SW480 (colon cancer). The experiment is described as follows: Antiproliferative activity (CCK-8 cell viability), SW480. The note with it: Homo sapiens, 72 h; for inhibition at 3.3 µM: Compound concentration: 3.3 μM; for inhibition at 10 µM: Compound concentration: 10 μM; for inhibition at 30 µM: Compound concentration: 30 μM. An outline of the steps: as §1
In experiment [2] the test system is B16F10 (malignant melanoma). The experiment is described as follows: Antiproliferative activity (CCK-8 cell viability), B16F10. As to conditions: Mus musculus, 72 h, read-out: Antiproliferative activity in cancerous cells, B16F10 (inhibition of cell growth); for inhibition at 3.3 µM: B16-F10, Compound concentration: 3.3 μM; for inhibition at 10 µM: B16-F10, Compound concentration: 10 μM. The method, boiled down:
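Cell growth inhibition was measured in B16F10 malignant melanoma cells with a Cell Counting Kit-8 viability assay. Cells were maintained in DMEM plus 10% fetal bovine serum, seeded at 2,000-5,000 cells/well in 96-well plates, and treated for 72 h at 37° C. Viability was expressed relative to DMSO-treated vehicle control wells.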

For experiment [3], the system named is A431 (epidermoid carcinoma). The experiment can be described thus: Antiproliferative activity (CCK-8 cell viability), A431. The note with it: Homo sapiens, 72 h; for inhibition at 3.3 µM: A-431, Compound concentration: 3.3 μM; for inhibition at 10 µM: A-431, Compound concentration: 10 μM; for inhibition at 30 µM: A-431, Compound concentration: 30 μM. The method, boiled down:
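This growth inhibition assay used A431 cells maintained in Dulbecco's modified Eagle's medium plus 10% fetal bovine serum. Cells were seeded in 96-well plates, treated with compound for 72 h at 37° C., and then given 10 μL CCK-8 solution. After a further 4 h, absorbance was read at 450 nm.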

For experiment [4], the system named is A549 (lung adenocarcinoma). The experiment is described as follows: Antiproliferative activity (CCK-8 cell viability), A549. The note with it: Homo sapiens, 72 h; for inhibition at 3.3 µM: Compound concentration: 3.3 μM; for inhibition at 10 µM: Compound concentration: 10 μM; for inhibition at 30 µM: Compound concentration: 30 μM. An outline of the steps: as §1

A further experiment deals with HeLa (cervical cancer). The experiment can be described thus: Antiproliferative activity (CCK-8 cell viability), HeLa. As to conditions: Homo sapiens, 72 h, read-out: Antiproliferative activity in cancerous cells, HELA (inhibition of cell growth); for inhibition at 3.3 µM: Compound concentration: 3.3 μM; for inhibition at 10 µM: Compound concentration: 10 μM. The method, boiled down: as §1

Where [5] appears, read: read-out: Antiproliferative activity in cancerous cells, SW480 (inhibition of cell growth).
Setting [6] is: read-out: Antiproliferative activity in cancerous cells, A431 (inhibition of cell growth).
The mark [7] stands for this setting: read-out: Antiproliferative activity in cancerous cells, A549 (inhibition of cell growth).
[8] abbreviates: read-out: Antiproliferative activity in cancerous cells, A549.

Where two headings read alike, the source gives them in different places.

As for `CC1=C(CC(=O)O)c2cc(F)ccc2/C1=C\c1ccc(OCCc2ccc(F)cc2)cc1` [B31, (Z)-2-(5-Fluoro-1-(4-(4-fluorophenethoxy)benzylidene)-2-methyl-1H-inden-3-yl)acetic acid], the inhibition at 3.3 µM was less than 30% in experiment [1]; less than 30% in the experiment with HepG2 (liver cancer); less than 30% with SW480 (colon cancer) (setting [5]); no less than 50% in experiment [2]; 30 to 50% in experiment [3] (setting [6]); 30 to 50% in experiment [4] (setting [7]). In the experiment with HeLa (cervical cancer), the inhibition at 3.3 µM was less than 30%. Besides, the inhibition at 10 µM in experiment [1] is no less than 50%; in the experiment with HepG2 (liver cancer) it was no less than 50%; in the experiment on SW480 (colon cancer) (setting [5]), less than 30%; in experiment [2], no less than 50%; in experiment [3] (setting [6]), no less than 50%; in experiment [4] (setting [7]), 30 to 50%. For the same compound, the inhibition at 10 µM in the experiment with HeLa (cervical cancer) was no less than 50%.

In the case of `CC1=C(CC(=O)O)c2cc(F)ccc2/C1=C\c1ccc(OCCc2ccc(Cl)cc2)cc1` [B35, (Z)-2-(1-(4-(4-Chlorophenethoxy)benzylidene)-5-fluoro-2-methyl-1H-inden-3-yl)acetic acid], the inhibition at 3.3 µM in experiment [1] is no less than 50%; with HepG2 (liver cancer), 30 to 50%; with SW480 (colon cancer) (setting [5]), less than 30%; in experiment [2] it was no less than 50%; in experiment [3] (setting [6]), no less than 50%; in experiment [4] (setting [7]), no less than 50%. For the same compound, the inhibition at 3.3 µM in the experiment with HeLa (cervical cancer) was less than 30%. Moreover, the inhibition at 10 µM (in experiment [1]; in the experiment on HepG2 (liver cancer); in the experiment with SW480 (colon cancer) (setting [5]); in experiment [2]; in experiment [3] (setting [6]); in experiment [4] (setting [7])) was no less than 50% each time. Further, the inhibition at 10 µM in the experiment on HeLa (cervical cancer) was no less than 50%.

Consider `CC1=C(CC(=O)O)c2cc(F)ccc2/C1=C\c1ccc(COCc2ccc(C(C)C)cc2)cc1` [B150, (Z)-2-(5-Fluoro-1-(4-(((4-isopropylbenzyl)oxy)methyl)benzylidene)-2-methyl-1H-inden-3-yl)acetic acid], for which the inhibition at 3.3 µM in experiment [1] is 30 to 50%; in the experiment on HepG2 (liver cancer) it was less than 30%; with SW480 (colon cancer) (setting [5]), 30 to 50%; in experiment [2], less than 30%; in experiment [3] (setting [6]), no less than 50%; in experiment [4] (setting [7]) it was 30 to 50%. The inhibition at 3.3 µM with HeLa (cervical cancer) is 30 to 50%. Besides, the inhibition at 10 µM (in experiment [1]; with HepG2 (liver cancer); with SW480 (colon cancer) (setting [5]); in experiment [2]; in experiment [3] (setting [6]); in experiment [4] (setting [7])) was no less than 50% in each case. Besides, the inhibition at 10 µM in the experiment with HeLa (cervical cancer) was no less than 50%.

Take `CC1=C(CC(=O)O)c2cc(Cl)c(Cl)cc2/C1=C/c1ccc(Oc2ccc(F)cc2)cc1` [E28, (E)-2-(5,6-Dichloro-1-(4-(4-fluorophenoxy)benzylidene)-2-methyl-1H-inden-3-yl)acetic acid]: the inhibition at 3.3 µM was no less than 50% in experiment [1]; no less than 50% in the experiment on HepG2 (liver cancer); less than 30% with SW480 (colon cancer) (setting [5]); no less than 50% in experiment [2]; 30 to 50% in experiment [3] (setting [6]); no less than 50% in experiment [4] (setting [7]). Further, the inhibition at 3.3 µM with HeLa (cervical cancer) was no less than 50%. In addition, the inhibition at 10 µM (in experiment [1]; with HepG2 (liver cancer); with SW480 (colon cancer) (setting [5]); in experiment [2]; in experiment [3] (setting [6]); in experiment [4] (setting [7])) was no less than 50% throughout. Further, the inhibition at 10 µM in the experiment on HeLa (cervical cancer) was no less than 50%. Further, the inhibition at 30 µM in experiment [1] (Compound concentration: 30 μM) was no less than 50%; in the experiment with HepG2 (liver cancer) (Compound concentration: 30 μM), no less than 50%; with SW480 (colon cancer) (setting [5]) it was no less than 50%; in experiment [2] (B16-F10, Compound concentration: 30 μM), no less than 50%; in experiment [3] (setting [6]), no less than 50%; in experiment [4] (setting [7]) it was no less than 50%. In addition, in the experiment on HeLa (cervical cancer) (Compound concentration: 30 μM), the inhibition at 30 µM is no less than 50%.

Turning to `CC1=C(CC(=O)O)c2cc(F)ccc2/C1=C\c1ccc(Oc2ccc(F)c(Cl)c2)cc1` [C54, (Z)-2-(1-(4-(3-Chloro-4-fluorophenoxy)benzylidene)-5-fluoro-2-methyl-1H-inden-3-yl)acetic acid], the inhibition at 3.3 µM in experiment [1] was less than 30%; in the experiment with HepG2 (liver cancer), less than 30%; in the experiment with SW480 (colon cancer) (setting [5]), less than 30%; in experiment [2] it was no less than 50%; in experiment [3] (setting [6]), no less than 50%; in experiment [4] (setting [7]) it was less than 30%. The inhibition at 3.3 µM with HeLa (cervical cancer) was less than 30%. In addition, the inhibition at 10 µM in experiment [1] is no less than 50%; in the experiment on HepG2 (liver cancer), 30 to 50%; in the experiment on SW480 (colon cancer) (setting [5]), no less than 50%; in experiment [2], no less than 50%; in experiment [3] (setting [6]) it was no less than 50%; in experiment [4] (setting [7]), less than 30%. For the same compound, the inhibition at 10 µM in the experiment with HeLa (cervical cancer) is no less than 50%. Besides, the inhibition at 30 µM in experiment [4] (setting [8]) was less than 30%.

`CC1=C(CC(=O)O)c2cc(Cl)ccc2/C1=C\c1ccc(CCCc2ccc(F)cc2)cc1` [B125, (Z)-2-(5-Chloro-1-(4-(3-(4-fluorophenyl)propyl)benzylidene)-2-methyl-1H-inden-3-yl)acetic acid]: the inhibition at 3.3 µM in experiment [1] is 30 to 50%; in the experiment on HepG2 (liver cancer) it was no less than 50%; in the experiment on SW480 (colon cancer) (setting [5]) it was less than 30%; in experiment [2] it was no less than 50%; in experiment [3] (setting [6]) it was no less than 50%; in experiment [4] (setting [7]), less than 30%. Further, the inhibition at 3.3 µM in the experiment on HeLa (cervical cancer) is no less than 50%. For the same compound, the inhibition at 10 µM (in experiment [1]; in the experiment with HepG2 (liver cancer); with SW480 (colon cancer) (setting [5]); in experiment [2]; in experiment [3] (setting [6]); in experiment [4] (setting [7])) was no less than 50% throughout. The inhibition at 10 µM in the experiment with HeLa (cervical cancer) is no less than 50%.

Regarding `CC1=C(CCOC(=O)N(C)N)c2cc(F)ccc2/C1=C\c1ccc(Oc2ccc(F)cc2)cc1` [A205, (Z)-2-(5-Fluoro-1-(4-(4-fluorophenoxy)benzylidene)-2-methyl-1H-inden-3-yl)ethyl 1-methylhydrazine-1-carboxylate], the inhibition at 3.3 µM in experiment [1] is less than 30%; in the experiment with HepG2 (liver cancer), 30 to 50%; in the experiment with SW480 (colon cancer) (setting [5]), less than 30%; in experiment [2], less than 30%; in experiment [3] (setting [6]) it was less than 30%; in experiment [4] (setting [7]), less than 30%. Besides, the inhibition at 3.3 µM in the experiment with HeLa (cervical cancer) was 30 to 50%. The inhibition at 10 µM in experiment [1] was no less than 50%; with HepG2 (liver cancer), no less than 50%; in the experiment on SW480 (colon cancer) (setting [5]), less than 30%; in experiment [2], less than 30%; in experiment [3] (setting [6]), less than 30%; in experiment [4] (setting [7]), less than 30%. Also, the inhibition at 10 µM with HeLa (cervical cancer) was no less than 50%. In addition, the inhibition at 30 µM in the experiment with SW480 (colon cancer) (read-out: Antiproliferative activity in cancerous cells, SW480) fell in the range of 30 to 50%; in experiment [3] (read-out: Antiproliferative activity in cancerous cells, A431), 30 to 50%; in experiment [4] (setting [8]), 30 to 50%.
